Test results: patent US5028716A, “3,5-diamino-1,2,4-triazole derivatives” (Taisho Pharmaceutical Co., Ltd., priority 1989, dated 1991)

Test system: lipid peroxidation (cerebral tissue homogenate)
Experiment: Inhibition test of lipid peroxidation (malondialdehyde formation, thiobarbituric acid method)
Conditions: 5 μM, rat cerebral tissue supernatant, pH 7.4, 37° C., 30 minutes

| Molecule | Inhibition (%) Dose 5 μM [%] |
| --- | --- |
| Nc1nc(N(CCSSCCN(Cc2ccccc2)c2n[nH]c(N)n2)Cc2ccccc2)n[nH]1 [Compound 7, bis{2-[N-benzyl-N-(5-amino-1,2,4-triazol-3-yl)amino]ethyl}disulfide] | 31.4 |
| Nc1n[nH]c(N(CCSSCCN(Cc2cccc(Br)c2)c2nc(N)n[nH]2)Cc2cccc(Br)c2)n1 [Compound 13] | 51.1 |
| Nc1n[nH]c(N(CCSSCCN(Cc2ccc(Br)cc2)c2nc(N)n[nH]2)Cc2ccc(Br)cc2)n1 [Compound 14] | 49.2 |
| COc1ccc(CN(CCSSCCN(Cc2ccc(OC)cc2)c2nc(N)n[nH]2)c2nc(N)n[nH]2)cc1 [Compound 17] | 22.2 |
| Nc1n[nH]c(N(CCSSCCN(Cc2ccc(OCc3ccccc3)cc2)c2nc(N)n[nH]2)Cc2ccc(OCc3ccccc3)cc2)n1 [Compound 18] | 71.7 |
| Nc1n[nH]c(N(CCSSCCN(Cc2cccc([N+](=O)[O-])c2)c2nc(N)n[nH]2)Cc2cccc([N+](=O)[O-])c2)n1 [Compound 19] | 21.3 |
| Nc1n[nH]c(N(CCSSCCN(Cc2ccc([N+](=O)[O-])cc2)c2nc(N)n[nH]2)Cc2ccc([N+](=O)[O-])cc2)n1 [Compound 20] | 35.2 |
| Nc1n[nH]c(N(CCSSCCN(Cc2cccc(C(F)(F)F)c2)c2nc(N)n[nH]2)Cc2cccc(C(F)(F)F)c2)n1 [Compound 22] | 36.6 |
| Cc1cccc(CN(CCSSCCN(Cc2cccc(C)c2)c2nc(N)n[nH]2)c2nc(N)n[nH]2)c1 [Compound 23] | 48.1 |
| Cc1ccccc1CN(CCSSCCN(Cc1ccccc1C)c1nc(N)n[nH]1)c1nc(N)n[nH]1 [Compound 24] | 41.6 |
| Cc1ccc(CN(CCSSCCN(Cc2ccc(C)cc2)c2nc(N)n[nH]2)c2nc(N)n[nH]2)cc1 [Compound 25] | 51.8 |
| Cc1ccc(C)c(CN(CCSSCCN(Cc2cc(C)ccc2C)c2nc(N)n[nH]2)c2nc(N)n[nH]2)c1 [Compound 29] | 70.8 |
| Cc1cc(C)c(CN(CCSSCCN(Cc2c(C)cc(C)cc2C)c2nc(N)n[nH]2)c2nc(N)n[nH]2)c(C)c1 [Compound 30] | 85.8 |
| CC(C)(C)c1ccc(CN(CCSSCCN(Cc2ccc(C(C)(C)C)cc2)c2nc(N)n[nH]2)c2nc(N)n[nH]2)cc1 [Compound 33] | 35.6 |
| Nc1n[nH]c(N(CCSSCCN(Cc2ccc(-c3ccccc3)cc2)c2nc(N)n[nH]2)Cc2ccc(-c3ccccc3)cc2)n1 [Compound 34] | 55.8 |
| Cc1ccc(CN(CCSSCCN(Cc2ccc(C)c([N+](=O)[O-])c2)c2nc(N)n[nH]2)c2nc(N)n[nH]2)cc1[N+](=O)[O-] [Compound 37] | 31.4 |
| Nc1n[nH]c(N(CCSSCCN(Cc2cccc3ccccc23)c2nc(N)n[nH]2)Cc2cccc3ccccc23)n1 [Compound 38] | 56.8 |
| Nc1n[nH]c(N(CCSSCCN(Cc2ccc3ccccc3c2)c2nc(N)n[nH]2)Cc2ccc3ccccc3c2)n1 [Compound 39] | 56.3 |
| vitamin E [reference compound] | 12.6 |

Same assay, conditions: 100 μM, rat cerebral tissue supernatant, pH 7.4, 37° C., 30 minutes

| Molecule | Inhibition (%) Dose 100 μM [%] |
| --- | --- |
| CC(C)N(CCSSCCN(c1nc(N)n[nH]1)C(C)C)c1nc(N)n[nH]1 [Compound 6] | 55.7 |
| Nc1nc(N(CCSSCCN(Cc2ccccc2)c2n[nH]c(N)n2)Cc2ccccc2)n[nH]1 [Compound 7, bis{2-[N-benzyl-N-(5-amino-1,2,4-triazol-3-yl)amino]ethyl}disulfide] | 96.0 |
| COc1ccc(CN(CCSSCCN(Cc2ccc(OC)cc2)c2nc(N)n[nH]2)c2nc(N)n[nH]2)cc1 [Compound 17] | 100 |
| Nc1n[nH]c(N(CCSSCCN(Cc2cccc([N+](=O)[O-])c2)c2nc(N)n[nH]2)Cc2cccc([N+](=O)[O-])c2)n1 [Compound 19] | 100 |
| vitamin E [reference compound] | 30.5 |
